Measurements taken from patent publication US8193189B2, “Quinoxaline derivatives as tyrosine kinase activity inhibitors” (Novartis AG, priority 2007, dated 2012).

Assays:
GST-JAK2(808-1132) = molecular target: T1, GST-JAK2(808-1132) (Homo sapiens, UniProt O60674); assay: EPK JAK-family kinases profiling assay (Caliper mobility shift), JAK2; type: biochemical; settings: ATP 20 μM, 1.8 nM kinase
T1 construct: GST-JAK2(808-1132); purchased Invitrogen (Carlsbad, USA) #4288
Text: (§1) All four kinases of the JAK-family kinases were used as purified recombinant GST-fusion proteins, containing the active kinase domains. GST-JAK1(866-1154), GST-JAK3(811-1124), and GST-TYK2(888-1187) were expressed and purified by affinity chromatography at the EPK biology unit. GST-JAK2(808-1132) was purchased from Invitrogen (Carlsbad, USA, #4288).
(§2) The kinase assays were based on the Caliper mobility shift assay using the LabChip 3000 systems. This technology is similar to capillary electrophoresis and uses charge driven separation of substrate and product in a microfluidic chip.
(§3) All kinase reactions were performed in 384 well microtiter plates in a total reaction volume of 18 μl. The assay plates were prepared with 0.1 μl per well of test compound in the appropriate test concentration, as described under the section “preparation of compound dilutions”. The reactions were started by combining 9 μl of substrate mix (consisting of peptide and ATP) with 9 μl of kinase dilution. The reactions were incubated for 60 minutes at 30° C. and stopped by adding 70 μl of stop buffer (100 mM Hepes, 5% DMSO, 0.1% Coating reagent, 10 mM EDTA, 0.015% Brij 35).
(§4) Fluorescently labeled synthetic peptides were used as substrates in all reactions. […] Specific assay conditions are described in Table 1:
(§5) The terminated reactions were transferred to the Caliper LabChip 3000 reader and the turnover of each reaction was measured by determining the substrate/product ratio.
(§6) Test compounds were dissolved in DMSO (10 mM) and transferred into 1.4 mL flat bottom or V-shaped Matrix tubes carrying a unique 2D matrix chip by individual compound hubs. The numbers of these chips were distinctively linked to the individual compound identification numbers. The stock solutions were stored at −20° C. if not used immediately. For the test procedure the vials were defrosted and identified by a scanner whereby a working sheet was generated that guided the subsequent working steps.
(§7) Compound dilutions were made in 96 well plates. This format enabled the assay of maximally 40 individual test compounds at 8 concentrations (single points) including 4 reference compounds. The dilution protocol included the production of pre-dilution plates, master plates and assay plates:
(§8) Pre-dilution plates: 96 polypropylene well plates were used as pre-dilution plates. A total of 4 pre-dilution plates were prepared including 10 test compounds each on the plate positions A1-A10, one standard compound at A11 and one DMSO control at A12. All dilution steps were done on a HamiltonSTAR robot.
(§9) Master plates: 100 μL of individual compound dilutions including standard compound and controls of the 4 “pre-dilution plates” were transferred into a 384 “master plate” including the following concentrations 1′820, 564, 182, 54.6, 18.2, 5.46, 1.82 and 0.546 μM, respectively in 90% of DMSO.
(§10) Assay plates: Identical assay plates were then prepared by pipetting 100 nL each of compound dilutions of the master plates into 384-well “assay plates”. […] The preparation of the master plates were handled by the Matrix PlateMate Plus robot and replication of assay plates by the HummingBird robot.

GST-JAK3(811-1124) = molecular target: T2, GST-JAK3(811-1124) (Homo sapiens, UniProt P52333); assay: EPK JAK-family kinases profiling assay (Caliper mobility shift), JAK3; type: biochemical; settings: ATP 80 μM, 6 nM kinase
T2 construct: GST-JAK3(811-1124); made in house
Text: as §1, §2, §3, §4, §5, §6, §7, §8, §9, §10

[1] = tested on: JAK/STAT pathway (JAK1/JAK2-dependent nuclear translocation of STAT1-GFP); assay: Inhibition of the JAK/STAT pathway: IFN-γ stimulated nuclear translocation of STAT1-GFP in HT1080 fibrosarcoma cells; type: cell-based; settings: Homo sapiens, HT-1080; HT1080 STAT1-GFP cells, 100 ng/ml IFN-γ 2 hours, compound added 30 min before; read-out: STAT1translo IC50
Text: The medium-throughput (96-well format), robust and reproducible cellular assay can be routinely used to assess the functional activation of Janus Kinases (JAKs), based on the nuclear translocation of their substrate, Signal Transducer and Activator of Transcription (STAT). Nuclear translocation can be monitored in HT1080 fibrosarcoma cells stably transfected with STAT1 fused to Green Fluorescence Protein (GFP). Stimulation with interferon-γ (IFN-γ) results in JAK1/JAK2-dependent nuclear translocation of STAT1-GFP that can be quantified using the Cellomics Cyto/NucTrans software package. This assay may be used to provide an assessment of the nuclear-cytoplasmic differential (NCD) of GFP-STAT1 using Hoechst dye to define the boundaries of the nucleus.
Compounds can be dissolved in DMSO to a final stock concentration of 10 mM and stored as aliquots at 4° C. Compounds may be pre-diluted in 100% DMSO at 10 mM, 3 mM 1 mM, 0.3 mM, 0.1 mM, 0.03 mM, 0.01 mM and 0.003 mM. Subsequently, compounds may be diluted in medium and added in 50 μl to the cells. The final compound concentrations tested may be 10 μM, 3 μM 1 μM, 0.3 μM, 0.1 μM, 0.03 μM, 0.01 μM and 0.003 μM and the final DMSO concentration can be 0.1%.
The plates may then be washed once in PBS, and 200 μl PBS finally added per well. The plates, being finally covered with a black adhesive, may be either read directly or stored at 4° C. for later imaging. Where appropriate, the compounds may be added 30 min before stimulation with IFN-γ.
The plates can be read on a Cellomics® ArrayscanII automated fluorescence microscope plate reader equipped with a Mercury-Xenon white light illumination source and a Zeiss Axiovert inverted microscope, using the XF100 dichroic/emission filter cube and matching excitation filters, 10× magnification, and a 0.3 numerical aperture objective. Image acquisition and analysis can be performed using a customized protocol based on the ‘NuclearTranslocation’ Bioapplication (for details, see Appendices). For each well, multiple images (fields) can be acquired until a minimum of 1000 cells are counted using two 2 channels: Channel 1 (Hoechst)=focus+nuclear mask, Channel 2 (GFP)=signal quantification in mask areas as outlined below.
Nuclei may be first identified based on the Hoechst staining and a mask generated for each nucleus that then serves as a template to generate a circle (eroded inwards by 1 pixel) and a 3 pixel-wide collar-like ring (off-set outwards by 1 pixel), in which the nuclear and cytoplasmic intensity of GFP, respectively, are quantified in the corresponding channel. High content analysis yields numerous measurements per cell and the GPF intensity differential between the nuclear and the cytoplasmic masks may be chosen as a measure of sub-cellular GFP-STAT1 relocation. The resulting values may be averaged for all cells in the well to return a single measurement plus standard deviation.

GST-JAK1(866-1154) = molecular target: T3, GST-JAK1(866-1154) (Homo sapiens, UniProt P23458); assay: EPK JAK-family kinases profiling assay (Caliper mobility shift), JAK1; type: biochemical; settings: ATP 40 μM, 50 nM kinase
T3 construct: GST-JAK1(866-1154); made in house
Text: as §1, §2, §3, §4, §5, §6, §7, §8, §9, §10

T1 sequence (O60674 808-1132): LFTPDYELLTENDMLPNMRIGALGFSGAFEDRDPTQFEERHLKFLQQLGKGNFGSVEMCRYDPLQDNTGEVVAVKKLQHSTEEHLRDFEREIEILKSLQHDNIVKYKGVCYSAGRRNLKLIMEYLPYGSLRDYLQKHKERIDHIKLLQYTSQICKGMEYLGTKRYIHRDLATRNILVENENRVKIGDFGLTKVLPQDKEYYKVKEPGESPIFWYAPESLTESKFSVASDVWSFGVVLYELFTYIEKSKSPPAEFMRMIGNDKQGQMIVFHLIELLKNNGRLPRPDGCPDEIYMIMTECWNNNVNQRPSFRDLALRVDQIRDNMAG
T2 sequence (P52333 811-1124): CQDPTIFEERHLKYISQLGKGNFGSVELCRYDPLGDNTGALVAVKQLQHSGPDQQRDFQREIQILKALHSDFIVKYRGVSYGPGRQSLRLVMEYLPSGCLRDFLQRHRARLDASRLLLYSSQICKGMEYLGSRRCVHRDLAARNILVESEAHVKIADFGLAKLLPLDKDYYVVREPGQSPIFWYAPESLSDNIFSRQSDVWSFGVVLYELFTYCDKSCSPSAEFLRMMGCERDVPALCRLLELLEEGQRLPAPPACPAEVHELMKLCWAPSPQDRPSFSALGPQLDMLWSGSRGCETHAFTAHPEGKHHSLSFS
T3 sequence (P23458 866-1154): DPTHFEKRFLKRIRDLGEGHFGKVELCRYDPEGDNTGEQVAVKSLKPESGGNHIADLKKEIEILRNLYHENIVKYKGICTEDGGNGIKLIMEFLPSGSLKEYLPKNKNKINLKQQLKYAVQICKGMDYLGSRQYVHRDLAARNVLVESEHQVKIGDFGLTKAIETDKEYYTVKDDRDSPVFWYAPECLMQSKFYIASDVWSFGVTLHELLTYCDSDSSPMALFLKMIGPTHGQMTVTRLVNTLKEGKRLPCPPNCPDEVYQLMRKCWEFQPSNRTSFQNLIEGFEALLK

IC50 (GST-JAK2(808-1132))	IC50 (GST-JAK3(811-1124))	IC50 [1]	IC50 (GST-JAK1(866-1154))	SMILES
82 nM	4400 nM			COc1cc(-c2cnc3cccc(-c4ccc(C(=O)N5CCOCC5)cc4F)c3n2)cc(OC)c1OC [Example 1, {3-Fluoro-4-[3-(3,4,5-trimethoxy-phenyl)-quinoxalin-5-yl]-phenyl}-morpholin-4-yl-methanone]
120 nM	5400 nM			COc1cc(-c2cnc3cccc(-c4ccc(S(C)(=O)=O)cc4)c3n2)cc(OC)c1OC [Example 2, 8-(4-Methanesulfonyl-phenyl)-2-(3,4,5-trimethoxy-phenyl)-quinoxaline]
85 nM	9400 nM	10800 nM		CCS(=O)(=O)c1ccc(-c2cccc3ncc(-c4cc(OC)c(OC)c(OC)c4)nc23)cc1 [Example 3, 8-(4-Ethanesulfonyl-phenyl)-2-(3,4,5-trimethoxy-phenyl)-quinoxaline]
220 nM	> 10000 nM			COc1cc(-c2cnc3cccc(-c4ccc(S(=O)(=O)C(C)C)cc4)c3n2)cc(OC)c1OC [Example 4, 8-[4-(Propane-2-sulfonyl)-phenyl]-2-(3,4,5-trimethoxy-phenyl)-quinoxaline]
110 nM	> 10000 nM			COc1cc(-c2cnc3cccc(-c4ccc(S(N)(=O)=O)cc4)c3n2)cc(OC)c1OC [Example 5, 4-[3-(3,4,5-Trimethoxy-phenyl)-quinoxalin-5-yl]-benzenesulfonamide]
95 nM	8420 nM			CCNS(=O)(=O)c1ccc(-c2cccc3ncc(-c4cc(OC)c(OC)c(OC)c4)nc23)cc1 [Example 7, N-Ethyl-4-[3-(3,4,5-trimethoxy-phenyl)-quinoxalin-5-yl]-benzenesulfonamide]
110 nM	> 10000 nM			COc1cc(-c2cnc3cccc(-c4ccc(S(=O)(=O)N(C)C)cc4)c3n2)cc(OC)c1OC [Example 8, N,N-Dimethyl-4-[3-(3,4,5-trimethoxy-phenyl)-quinoxalin-5-yl]-benzenesulfonamide]
170 nM	> 10000 nM			CNC(=O)c1ccc(-c2cccc3ncc(-c4cc(OC)c(OC)c(OC)c4)nc23)cc1 [Example 9, N-Methyl-4-[3-(3,4,5-trimethoxy-phenyl)-quinoxalin-5-yl]-benzamide]
9 nM			39 nM	COc1cc(-c2cnc3cccc(-c4ccc(CC(=O)N5CCOCC5)cc4)c3n2)cc(OC)c1OC [Example 11, 1-Morpholin-4-yl-2-{4-[3-(3,4,5-trimethoxy-phenyl)-quinoxalin-5-yl]-phenyl}-ethanone]
52.5 nM	> 10000 nM		180 nM	COc1cc(-c2cnc3cccc(-c4ccc(NS(C)(=O)=O)cc4)c3n2)cc(OC)c1OC [Example 12, N-{4-[3-(3,4,5-Trimethoxy-phenyl)-quinoxalin-5-yl]-phenyl}-methanesulfonamide]
	> 10000 nM			COc1cc(-c2cnc3cccc(-c4ccc(CN5CCOCC5)cc4)c3n2)cc(OC)c1OC [Example 15, 8-(4-Morpholin-4-ylmethyl-phenyl)-2-(3,4,5-trimethoxy-phenyl)-quinoxaline]
19 nM				COc1cc(-c2cnc3cccc(-c4ccc(C(=O)N5CCOCC5)c(C)c4)c3n2)cc(OC)c1OC [Example 16, {2-Methyl-4-[3-(3,4,5-trimethoxy-phenyl)-quinoxalin-5-yl]-phenyl}-morpholin-4-yl-methanone]
			59 nM	COc1cc(-c2cnc3cccc(-c4ccc(CN5CCS(=O)(=O)CC5)cc4)c3n2)cc(OC)c1OC [Example 19, 8-[4-(1,1-Dioxido-thiomorpholin-4-ylmethyl)-phenyl]-2-(3,4,5-trimethoxy-phenyl)-quinoxaline]
24 nM			160 nM	COc1cc(-c2cnc3cccc(-c4ccc(CN5CCOCC5)c(F)c4)c3n2)cc(OC)c1OC [Example 20, 8-(3-Fluoro-4-morpholin-4-ylmethyl-phenyl)-2-(3,4,5-trimethoxy-phenyl)-quinoxaline]
			1800 nM	COc1cc(-c2cnc3cccc(-c4ccc(CN5CCOCC5)c(C)c4)c3n2)cc(OC)c1OC [Example 21, 8-(3-Methyl-4-morpholin-4-ylmethyl-phenyl)-2-(3,4,5-trimethoxy-phenyl)-quinoxaline]
200 nM	> 10000 nM			COc1ccc(-c2cnc3cccc(-c4ccc(S(C)(=O)=O)cc4)c3n2)cc1OC [Example 23, 2-(3,4-Dimethoxy-phenyl)-8-(4-methanesulfonyl-phenyl)-quinoxaline]
23 nM	4200 nM			CS(=O)(=O)Nc1cccc(-c2cnc3cccc(-c4ccc(CC(=O)N5CCOCC5)cc4)c3n2)c1 [Example 38, N-(3-{8-[4-(2-Morpholin-4-yl-2-oxo-ethyl)-phenyl]-quinoxalin-2-yl}-phenyl)-methanesulfonamide]
190 nM	> 10000 nM			CCS(=O)(=O)c1ccc(-c2cccc3ncc(-c4cccc(NS(C)(=O)=O)c4)nc23)cc1 [Example 39, N-{3-[8-(4-Ethanesulfonyl-phenyl)-quinoxalin-2-yl]-phenyl}-methanesulfonamide]
38 nM	> 10000 nM			CCS(=O)(=O)c1ccc(-c2cccc3ncc(-c4ccc(OCCOC)c(OC)c4)nc23)cc1 [Example 47]
130 nM	9800 nM			CCS(=O)(=O)c1ccc(-c2cccc3ncc(-c4ccc(O)c(OC)c4)nc23)cc1 [Example 77, 4-[8-(4-Ethanesulfonyl-phenyl)-quinoxalin-2-yl]-2-methoxy-phenol]
520 nM	> 10000 nM			COc1cc(-c2cnc3cc(C)cc(-c4ccc(C(=O)N5CCOCC5)cc4)c3n2)cc(OC)c1OC [Example 79, {4-[7-Methyl-3-(3,4,5-trimethoxy-phenyl)-quinoxalin-5-yl]-phenyl}-morpholin-4-yl-methanone]
